Experimental data reported in patent US9168247B2, “Beta carboline derivatives useful in the treatment of proliferative disorders” (FACULTES UNIVERSITAIRES NOTRE DAME DE LA PAIX, priority 2010, dated 2015).
Like-named read-outs stand apart in the source and are kept apart here.

Legend:
U373 glioma cells = assay: MTT test, overall cell growth, U373; type: cell-based, human; conditions: 72 hours of incubation
Protocol: (§1) MTT tests were performed in order to rapidly, i.e., within 5 days, measure the effect of the present compounds on the overall cell growth. The test measured the number of metabolically active living cells that were able to transform the yellow product 3-(4,5-dimethylthiazol-2-yl)-2,5-diphenyl tetrazolium bromide (herein referred as MTT) into the blue product formazan dye by mitochondrial reduction. The amount of formazan obtained at the end of the experiment, measured by means of a spectrophotometer, is directly proportional to the number of living cells. Optical density determination thus enabled a quantitative measurement of the effect of the investigated compounds as compared to the control condition (untreated cells) and/or to other reference compounds.
(§2) Five human cancer cell lines set forth in Table 3 were used in the MTT tests. These cancer cell lines cover two histological cancer types including glioma (Hs683, T98G, U373), and oesophageal (OE21, OE33) cancers. The U373 cell line is apoptosis-resistant but autophagy-sensitive.
(§3) To perform the assay, cells were allowed to grow in 96-well micro-wells with a flat bottom with an amount of 100 μl of cell suspension per well with 5,000 to 8,000 cells/well depending on the cell type used. Each cell line was seeded in its appropriate culture medium.
(§4) The detailed experimental procedure was as follows: after a 24-hour period of incubation at 37° C., the culture medium was replaced by 100 μl of fresh medium in which the tested compound was previously dissolved, at the following molar concentrations: 1×10^−8 M, 5×10^−8 M, 1×10^−7 M, 5×10^−7 M, 1×10^−6 M, 5×10^−6 M, 1×10^−5 M, 5×10^−5 M and 1×10^−4 M. Each experiment was performed in sestuplicate (6 times).
(§5) After 72 hours of incubation at 37° C. with (experimental conditions) or without (control condition) the compound to be tested, the medium was replaced by 100 μl MTT dissolved in RPMI (1640 without phenol red) at a concentration of 0.5 or 1 mg/ml. The micro-wells were subsequently incubated during 3 hours and a half at 37° C. and centrifuged at 1300 rpm during 10 minutes. MTT was removed and formazan crystals formed were dissolved in […]. The micro-wells were shaken for 5 minutes and read on a spectrophotometer at wavelengths of 570 nm (maximal formazan absorbance).
(§6) For each experimental condition, the mean optical density was calculated, allowing the determination of the percentage of remaining living cells in comparison to the control.
(§7) The origin of all the cell lines we used, along with their biological characteristics, and the validation procedures of the MTT colorimetric assay as employed here are fully detailed in Van Quaquebeke et al., 2005, J Med Chem 48:849-856; Ingrassia et al., 2009, J Med Chem 52:1100-1114; Mathieu et al., 2009, J Cell Mol Med, Feb. 20, 2009.

T98G glioma cells = assay: MTT test, overall cell growth, T98G; type: cell-based, human; conditions: 72 hours of incubation
Protocol: as §1, §2, §3, §4, §5, §6, §7

Hs683 glioma cells = assay: MTT test, overall cell growth, Hs683; type: cell-based, human
Protocol: as §1, §2, §3, §4, §5, §6, §7

[1] = test system: OE21 oesophageal cancer cells; assay: MTT test, overall cell growth, OE21; type: cell-based, human
Protocol: as §1, §2, §3, §4, §5, §6, §7

[2] = test system: OE33 oesophageal cancer cells; assay: MTT test, overall cell growth, OE33; type: cell-based, human
Protocol: as §1, §2, §3, §4, §5, §6, §7

[3] = test system: human cancer cell lines (U373, T98G, Hs683, OE21, OE33); assay: MTT test, mean over the cancer cell lines; type: cell-based; conditions: mean over the cancer cell lines, MTT test, read-out: IC50 Mean ± SEM
Protocol: as §1, §2, §3, §4, §5, §6, §7

U373 cells = assay: Cellular imaging (videomicroscopy) of cultured U373 cells: antiproliferative class and global growth ratio; type: cell-based, human; set-up: key to Anti proliferative class / anti-proliferative class-GGR: class I: actually cytostatic for 3 days (<10% of cell death at the 3rd day); class II: cyctostatic but becomes cytotoxic with <10% cell death on the 2nd day, and >20% of cell death on the 3rd day; class III: cytostatic but rapidly becomes cytotoxic with <10% cell death on the 1st day, >20% of cell death on the 2nd day and >50% of cell death on the 3rd day; class IV: cytotoxic (>50% of cell death on the first day); conditions: for global growth ratio (GGR): GG treated cells/GG control cells, 72 h after drug addition, drug at its IC50 (MTT-test determined); for Anti proliferative class: cellular imaging of cultured U373 cells over three consecutive days
Text: The effects of the di- and tri-substituted beta-carboline derivatives as described herein can also be determined on cell proliferation, migration and morphology by means of a cellular imaging approach (Debeir et al., Cytometry 60:29-40, 2004; Debeir et al., IEEE Trans Med Imaging 24:697-711, 2005) either in, e.g., the human U373-MG glioma cell line, which is apoptosis-resistant but autophagy-sensitive (Lefranc F et al., Neurosurgery 2008) or in, e.g., the human A549 non-small-cell-lung cancer cell line, which is apoptosis-resistant and autophagy-resistant (Mijatovic T et al., Neoplasia 2006, May; 8(5):402-12).
[…] The experiments are conducted in quadruplicates.
The behaviour of the cells, in terms of morphology, growth and death are thus investigated. The effect on the overall growth is measured by counting the number of cells on the first (0 h) and the last image (72 h) of each film. The global growth ratio (GGR) is then deduced by dividing the number of cells on the last image by the number of cells on the first image. The ratio GGRtreated cells/GGRcontrol cells is further calculated thereby providing a value that describes the effect of compounds of the present invention on the overall cell growth.
The methodology is fully described and validated in Debeir et al., 2008, Exp Cell Res 314:2985-2998 and Mathieu et al., 2009, J Cell Mol Med, Feb. 20, 2009.

[4] = Homo sapiens, Hs 683, 72 hours of incubation
[5] = Homo sapiens, OE21, 72 hours of incubation
[6] = Homo sapiens, OE33, 72 hours of incubation

## Cc1nccc2c1[nH]c1cc(OCC(C)C)ccc12 [JR221]
U373 glioma cells
  IC50: 24 ± 1 µM
T98G glioma cells
  IC50: 22 ± 3 µM
Hs683 glioma cells; 72 hours of incubation
  IC50: 23 ± 1 µM
[1]; 72 hours of incubation
  IC50: 12 ± 3 µM
[2]; 72 hours of incubation
  IC50: 25 ± 1 µM
[3]
  IC50: 22 ± 3 µM
U373 cells
  global growth ratio (GGR): 0.1
  Anti proliferative class: IV (class IV: cytotoxic (>50% of cell death on the first day))

## Cc1nccc2c3ccc(OCc4ccc(F)cc4)cc3n(Cc3ccc(F)cc3)c12 [CV11, 1-methyl-7-(4-fluorobenzyloxy)-9-(4-fluorobenzyl)-β-carboline]
U373 glioma cells; Homo sapiens, U373 MG
  IC50: 30 ± 1 µM
T98G glioma cells; Homo sapiens, T98G
  IC50: 14 ± 2 µM
Hs683 glioma cells; [4]
  IC50: 17 ± 2 µM
[1]; [5]
  IC50: 15 ± 2 µM
[2]; [6]
  IC50: 25 ± 2 µM
[3]; Homo sapiens
  IC50: 20 ± 3 µM
U373 cells
  global growth ratio (GGR): 0.2
  Anti proliferative class: III

## Cc1c2c(cc[n+]1Cc1ccc(F)cc1)c1ccc(OCc3cccc(F)c3)cc1n2Cc1cccc(F)c1.[Br-] [CV22, 1-methyl-2-(4-fluorobenzyl)-7-(3-fluorobenzyl)oxy-9-(3-fluorobenzyl)-β-carbolin-2-ium bromide]
U373 glioma cells; Homo sapiens, U373 MG
  IC50: 0.9 ± 0.1 µM
T98G glioma cells; Homo sapiens, T98G
  IC50: 1.9 ± 0.3 µM
Hs683 glioma cells; [4]
  IC50: 4.5 ± 0.4 µM
[1]; [5]
  IC50: 2.9 ± 0.1 µM
[2]; [6]
  IC50: 3.4 ± 0.1 µM
[3]; Homo sapiens
  IC50: 2.7 ± 0.6 µM
U373 cells
  global growth ratio (GGR): 0.5
  Anti proliferative class: I (class I: actually cytostatic for 3 days (<10% of cell death at the 3rd day))

## Cc1c2c(cc[n+]1Cc1ccccc1F)c1ccc(OCc3cccc(F)c3)cc1n2Cc1cccc(F)c1.[Br-] [CV19, 1-methyl-2-(2-fluorobenzyl)-7-(3-fluorobenzyl)oxy-9-(3-fluorobenzyl)-β-carbolin-2-ium bromide]
U373 glioma cells; Homo sapiens, U373 MG
  IC50: 0.6 ± 0.2 µM
T98G glioma cells; Homo sapiens, T98G
  IC50: 0.7 ± 0.2 µM
Hs683 glioma cells; [4]
  IC50: 2.2 ± 0.2 µM
[1]; [5]
  IC50: 1.4 ± 0.3 µM
[2]; [6]
  IC50: 3 ± 0.2 µM
[3]; Homo sapiens
  IC50: 1.6 ± 0.4 µM
U373 cells
  global growth ratio (GGR): 0.2
  Anti proliferative class: I (class I: actually cytostatic for 3 days (<10% of cell death at the 3rd day))

## Cc1c2c(cc[n+]1Cc1ccc(F)cc1)c1ccc(OCc3ccc(F)cc3)cc1n2Cc1ccc(F)cc1.[Br-] [CV29, 1-methyl-2-(4-fluorobenzyl)-7-(4-fluorobenzyl)oxy-9-(4-fluorobenzyl)-β-carbolin-2-ium bromide]
U373 glioma cells; Homo sapiens, U373 MG
  IC50: 2.9 ± 0.1 µM
T98G glioma cells; Homo sapiens, T98G
  IC50: 14 ± 2 µM
Hs683 glioma cells; [4]
  IC50: 13 ± 1 µM
[1]; [5]
  IC50: 3.7 ± 0.2 µM
[2]; [6]
  IC50: 3.1 ± 0.3 µM
[3]; Homo sapiens
  IC50: 7 ± 3 µM
U373 cells
  global growth ratio (GGR): 0.1
  Anti proliferative class: IV (class IV: cytotoxic (>50% of cell death on the first day))

## C=CCOc1ccc2c(c1)[nH]c1c(C)nccc12 [JR211]
U373 glioma cells
  IC50: 32 ± 2 µM
T98G glioma cells
  IC50: 32 ± 0.7 µM
Hs683 glioma cells; 72 hours of incubation
  IC50: 28 ± 1 µM
[1]; 72 hours of incubation
  IC50: 27 ± 2 µM
[2]; 72 hours of incubation
  IC50: 29.8 ± 0.7 µM
[3]
  IC50: 30 ± 1 µM
U373 cells
  global growth ratio (GGR): 0.2
  Anti proliferative class: II

## Cc1nccc2c1[nH]c1cc(OCCCC(F)(F)F)ccc12 [JR110]
U373 glioma cells
  IC50: > 100 µM
T98G glioma cells
  IC50: 86 ± 11 µM
Hs683 glioma cells; 72 hours of incubation
  IC50: > 100 µM
[1]; 72 hours of incubation
  IC50: > 100 µM
[2]; 72 hours of incubation
  IC50: > 100 µM
[3]
  IC50: > 97 µM
U373 cells
  global growth ratio (GGR): 0.2
  Anti proliferative class: IV (class IV: cytotoxic (>50% of cell death on the first day))

## CCCn1c2cc(OCc3ccccc3)ccc2c2cc[n+](Cc3ccc(F)cc3)c(C)c21.[Br-] [CV36, 1-methyl-2-(4-fluorobenzyl)-7-benzyloxy-9-propyl-β-carbolin-2-ium bromide]
U373 glioma cells; Homo sapiens, U373 MG
  IC50: 0.88 ± 0.06 µM
T98G glioma cells; Homo sapiens, T98G
  IC50: 5.7 ± 0.2 µM
Hs683 glioma cells; [4]
  IC50: 3.1 ± 0.6 µM
[1]; [5]
  IC50: 1.9 ± 0.3 µM
[2]; [6]
  IC50: 1 ± 0.1 µM
[3]; Homo sapiens
  IC50: 2.5 ± 0.9 µM
U373 cells
  global growth ratio (GGR): 0.1
  Anti proliferative class: IV (class IV: cytotoxic (>50% of cell death on the first day))
